Laboratory results as given in patent publication US6703042B1, “Salts of L-carnitine and lower alkanoyl L-carnitine” (Sigma-Tau Industries Farmaceutiche Riunite S.p.A., priority 1999, dated 2004).
Where a name gives a salt, the structure may show the parent alone.

Key:
[1] = Hygroscopicity: increase in weight and appearance after exposure to humidity; format: physicochemical; conditions: exposure to 70±5% relative humidity, at 25° C. for 24 hours
[2] = Hygroscopicity of the solid as stated in the preparation examples; format: physicochemical
[3] = background statement; cited from earlier work

Row | Molecule | Appearance [1] | Increase in weight (%) [1] [%] | Hygroscopicity of the solid [2] | Hygroscopicity (known salts, prior art) [3]
1 | CC(=O)O[C@H](CC(=O)O)C[N+](C)(C)C.[Cl-] [Acetyl-L-carnitine chloride, reference compound] | clumped mass | 8 | – | –
2 | CC(=O)O[C@H](CC(=O)[O-])C[N+](C)(C)C [Acetyl-L-carnitine inner salt, reference compound] | deliquescent | 19 | Very Hygroscopic | –
3 | C[N+](C)(C)C[C@H](O)CC(=O)O.C[N+](C)(C)C[C@H](O)CC(=O)O.O=C([O-])C(O)C(O)C(=O)[O-] [L(−)-carnitine tartrate] | – | – | – | non-hygroscopic
4 | C[N+](C)(C)C[C@H](O)CC(=O)[O-] [L-carnitine inner salt, reference compound] | deliquescent | 23 | – | –
5 | Cl.N[C@@H](CS)C(=O)O [L-cysteine Hydrochloride] | – | – | Very Hygroscopic | –
6 | CCC(=O)O[C@H](CC(=O)O)C[N+](C)(C)C.[Cl-] [Propionyl-L-carnitine chloride, reference compound] | deliquescent | 15 | – | –
7 | CC(=O)O[C@H](CC(=O)O)C[N+](C)(C)C.O=C([O-])/C=C/C(=O)O [acetyl L(−)-carnitine acid fumarate] | – | – | – | strongly hygroscopic
8 | Acetyl L-carnitine L-arginate Hydrochloride [Example 5] | no variation | 0.45 | non-hygroscopic | –
9 | Acetyl L-carnitine L-asparaginate Hydrochloride [Example 9] | no variation | 0.3 | non-hygroscopic | –
10 | Acetyl L-carnitine L-aspartate Hydrochloride [Example 8] | no variation | 0.7 | non-hygroscopic | –
11 | Acetyl L-carnitine L-cysteinate Hydrochloride [Example 4] | no variation | 0.6 | non-hygroscopic | –
12 | Acetyl L-carnitine L-glutamate Hydrochloride [Example 6] | no variation | 0.4 | non-hygroscopic | –
13 | Acetyl L-carnitine L-glutaminate Hydrochloride [Example 7] | no variation | 0.6 | non-hygroscopic | –
14 | Acetyl L-carnitine L-isoleucinate hydrochloride [Example 1] | no variation | 0.2 | non-hygroscopic | –
15 | L(−)-carnitine acid fumarate | – | – | – | non-hygroscopic
